Test results published in patent US20240116985A1, “STAPLED PEPTIDES AND METHODS THEREOF” (priority 2020, published 2024).

assay: CHI Log D procedure; format: physicochemical; conditions: pH 7.4

| SMILES | CHI Log D |
| --- | --- |
| CC(=O)N[C@@H](Cc1ccccc1)C(=O)N[C@@H](CC(=O)O)C(=O)N[C@@H](C)C(=O)N[C@]1(C)CCCCCCC=CCOC(=O)N2CC[C@@](C(=O)N[C@@H](Cc3ccccc3)C(=O)N[C@@H](Cc3c[nH]c4ccccc34)C(=O)N[C@@H](CCC(N)=O)C(N)=O)(C2)NC(=O)[C@H](CO)NC(=O)[C@H](Cc2ccccc2)NC(=O)[C@H](C)NC(=O)[C@H](C)NC(=O)[C@H](CC(=O)O)NC(=O)[C@H](CC(=O)O)NC1=O [I-163, Ac-Phe-Asp-Ala-R8-Asp-Asp-Ala-Ala-Phe-Ser-PyrS-Phe-Trp-Gln-NH2] | 1.29 |
| COCCOCCC(=O)NCCCC[C@@H]1NC(=O)[C@H](C)NC(=O)[C@H](CC(=O)O)NC(=O)[C@H](CC(=O)O)NC(=O)C2(CCCC=CCCCOC(=O)N3CC[C@@](C(=O)N[C@@H](Cc4ccsc4)C(=O)N[C@@H](Cc4csc5ccccc45)C(=O)N[C@@H](CCC(N)=O)C(N)=O)(C3)NC(=O)[C@H](CC(N)=O)NC(=O)[C@H](Cc3ccccc3)NC1=O)CCCC=CC[C@]1(CCCN1C(C)=O)C(=O)N[C@@H](CC(=O)O)C(=O)N[C@@H](CC(C)(C)C)C(=O)N2 (stereo partly drawn) [I-893, Ac-PL3-Asp-Npg-B5-Asp-Asp-Ala-[mPEG2]Lys-Phe-Asn-PyrS2-3Thi-BztA-Gln-NH2] | 1.759 |
| CC(=O)N[C@@H](Cc1ccccc1)C(=O)N[C@@H](CC(=O)O)C(=O)N[C@@H](C)C(=O)N[C@]1(C)CCCCCCC=CCOC(=O)N2CC[C@@](C(=O)N[C@@H](Cc3ccccc3)C(=O)N[C@@H](Cc3c[nH]c4ccccc34)C(=O)N[C@@H](CCC(N)=O)C(N)=O)(C2)NC(=O)[C@H](C(C)C)NC(=O)[C@H](CC2CCCC2)NC(=O)[C@H](C)NC(=O)[C@H](C)NC(=O)[C@H](CC(=O)O)NC(=O)[C@H](CC(=O)O)NC1=O (single isomer, unassigned) [I-96, Ac-Phe-Asp-Ala-R8-Asp-Asp-Ala-Ala-CypA-Val-PyrS-Phe-Trp-Gln-NH2] | 1.343 |
| CC(=O)N[C@@H](Cc1ccccc1)C(=O)N[C@@H](CC(=O)O)C(=O)N[C@]1(C)CCN(C)C(=O)OCC=CCCCCC[C@@](C)(C(=O)N[C@@H](C)C(=O)N[C@@H](Cc2ccccc2)C(=O)N[C@@H](Cc2c[nH]c3ccccc23)C(=O)N[C@@H](CCC(N)=O)C(N)=O)NC(=O)[C@H](Cc2ccccc2)NC(=O)[C@H](C)NC(=O)[C@H](C)NC(=O)[C@H](CC(=O)O)NC(=O)[C@H](CC(=O)O)NC(=O)[C@H](C)NC1=O (single isomer, unassigned) [I-50, Ac-Phe-Asp-RdN-Ala-Asp-Asp-Ala-Ala-Phe-S7-Ala-Phe-Trp-Gln-NH2] | 1.201 |
| CC(=O)N[C@@H](Cc1ccccc1)C(=O)N[C@@H](CC(=O)O)C(=O)N[C@@H](C)C(=O)N[C@]1(C)CCCCCCC=CCOC(=O)N2CC[C@@](C(=O)N[C@@H](Cc3ccncc3)C(=O)N[C@@H](Cc3c[nH]c4ccccc34)C(=O)N[C@@H](CCC(N)=O)C(N)=O)(C2)NC(=O)[C@H](C(C)C)NC(=O)[C@H](Cc2ccccc2)NC(=O)[C@H](C)NC(=O)[C@H](C)NC(=O)[C@H](CC(=O)O)NC(=O)[C@H](CC(=O)O)NC1=O (single isomer, unassigned) [I-85, Ac-Phe-Asp-Ala-R8-Asp-Asp-Ala-Ala-Phe-Val-PyrS-4PyrA-Trp-Gln-NH2] | 0.998 |
| CC(=O)N[C@@H](Cc1ccccc1)C(=O)N[C@@H](CC(=O)O)C(=O)N[C@@H](C)C(=O)N[C@]1(C)CCN(C)C(=O)OCC=CCC[C@@](C)(C(=O)N[C@@H](Cc2ccccc2)C(=O)N[C@@H](Cc2c[nH]c3ccccc23)C(=O)N[C@@H](CCC(N)=O)C(N)=O)NC(=O)[C@H](C(C)C)NC(=O)[C@H](Cc2ccccc2)NC(=O)[C@H](C)NC(=O)[C@H](C)NC(=O)[C@H](CC(=O)O)NC(=O)[C@H](CC(=O)O)NC1=O [I-42, Ac-Phe-Asp-Ala-RdN-Asp-Asp-Ala-Ala-Phe-Val-S4-Phe-Trp-Gln-NH2] | 1.09 |
| CC[C@H](C)[C@H](NC(=O)[C@H](CC(=O)O)NC(=O)[C@H](C)NC(C)=O)C(=O)N[C@]1(C)CCN(C)C(=O)OCC=CCCCCC[C@@](C)(C(=O)N[C@@H](Cc2ccccc2)C(=O)N[C@@H](Cc2c[nH]c3ccccc23)C(=O)N[C@@H](C)C(N)=O)NC(=O)[C@H](C)NC(=O)[C@H](Cc2ccccc2)NC(=O)[C@H](C)NC(=O)[C@H](C)NC(=O)[C@H](CCC(=O)O)NC(=O)[C@H](CC(=O)O)NC1=O [I-154, Ac-Ala-Asp-Ile-RdN-Asp-Glu-Ala-Ala-Phe-Ala-S7-Phe-Trp-Ala-NH2] | 1.426 |

same assay, conditions: pH 7.4, CHI Log D

| SMILES | chromatographic logD |
| --- | --- |
| CC(=O)N1CCC[C@]12CC=CCCCC1(CCCC=CCCCCCC[C@@](C)(C(=O)N[C@@H](Cc3ccccc3)C(=O)N[C@@H](Cc3c[nH]c4ccccc34)C(=O)N[C@@H](CCC(N)=O)C(N)=O)NC(=O)[C@H](C(C)C)NC(=O)[C@H](Cc3ccccc3)NC(=O)[C@H](C)NC(=O)[C@H](C)NC(=O)[C@H](CCC(=O)O)NC(=O)[C@H](Cc3cccnc3)NC1=O)NC(=O)[C@H](C)NC(=O)[C@H](CC(=O)O)NC2=O (stereo partly drawn) [I-213, Ac-PL3-Asp-Ala-B5-3pyrA-Glu-Ala-Ala-Phe-Val-S8-Phe-Trp-Gln-NH2] | 2.82 |
| CCCC[C@@H]1NC(=O)C2(CCCC=CCCCCCC[C@@](C)(C(=O)N[C@@H](Cc3ccccc3)C(=O)N[C@@H](Cc3c[nH]c4ccccc34)C(=O)N[C@@H](CCC(N)=O)C(N)=O)NC(=O)[C@H](C(C)C)NC(=O)[C@H](Cc3ccccc3)NC(=O)[C@H](C)NC(=O)[C@H](C)NC(=O)[C@H](CCC(=O)O)NC1=O)CCCC=CC[C@]1(CCCN1C(C)=O)C(=O)N[C@@H](CC(=O)O)C(=O)N[C@@H](C)C(=O)N2 (stereo partly drawn) [I-205, Ac-PL3-Asp-Ala-B5-nLeu-Glu-Ala-Ala-Phe-Val-S8-Phe-Trp-Gln-NH2] | 3.84 |
| CC(=O)N1CCC[C@]12CC=CCCCC1(CCCC=CCCCCCC[C@@](C)(C(=O)N[C@@H](Cc3ccccc3)C(=O)N[C@@H](Cc3c[nH]c4ccccc34)C(=O)N[C@@H](CCC(N)=O)C(N)=O)NC(=O)[C@H](C(C)C)NC(=O)[C@H](Cc3c[nH]cn3)NC(=O)[C@H](C)NC(=O)[C@H](C)NC(=O)[C@H](CC(=O)O)NC(=O)[C@H](CC(=O)O)NC1=O)NC(=O)[C@H](C)NC(=O)[C@H](CC(=O)O)NC2=O (single isomer, unassigned) [I-320, Ac-PL3-Asp-Ala-B5-Asp-Asp-Ala-Ala-His-Val-S8-Phe-Trp-Gln-NH2] | 2.04 |
| CC(=O)N1CCC[C@]12CC=CCCCC1(CCCC=CCCCCCC[C@@](C)(C(=O)N[C@@H](Cc3ccccc3)C(=O)N[C@@H](Cc3c[nH]c4ccccc34)C(=O)N[C@@H](CCC(N)=O)C(N)=O)NC(=O)[C@H](C(C)C)NC(=O)[C@H](Cc3ccccc3)NC(=O)[C@H](C)NC(=O)[C@H](C)NC(=O)[C@H](Cc3cccc4ccccc34)NC(=O)[C@H](CC(=O)O)NC1=O)NC(=O)[C@H](C)NC(=O)[C@H](CC(=O)O)NC2=O (stereo partly drawn) [I-234, Ac-PL3-Asp-Ala-B5-Asp-1NapA-Ala-Ala-Phe-Val-S8-Phe-Trp-Gln-NH2] | 3.03 |
| CC(=O)N[C@@H](Cc1ccccc1)C(=O)N[C@@H](CC(=O)O)C(=O)N[C@@H](C)C(=O)N[C@]1(C)CCCCCCC=CCOC(=O)N2CC[C@@](C(=O)N[C@@H](Cc3ccc(O)cc3)C(=O)N[C@@H](Cc3c[nH]c4ccccc34)C(=O)N[C@@H](CCC(N)=O)C(N)=O)(C2)NC(=O)[C@H](C(C)C)NC(=O)[C@H](Cc2ccccc2)NC(=O)[C@H](C)NC(=O)[C@H](C)NC(=O)[C@H](CC(=O)O)NC(=O)[C@H](CC(=O)O)NC1=O (single isomer, unassigned) [I-62, Ac-Phe-Asp-Ala-R8-Asp-Asp-Ala-Ala-Phe-Val-PyrS-Tyr-Trp-Gln-NH2] | 0.981 |
